These results are taken from publication PMC9820082, “Synthesis of 9-Hydroxy-1H-Benzo[f]chromene Derivatives with Effective Cytotoxic Activity on MCF7/ADR, P-Glycoprotein Inhibitors, Cell Cycle Arrest and Apoptosis Effects” (International Journal of Molecular Sciences, 2022).

Series [1] has as its system PC-3 (human prostate adenocarcinoma, metastatic). As to the kind of experiment: MTT colorimetric cytotoxicity assay, PC-3. In kind it is cell-based. The following applies: Homo sapiens; MTT, 24 h incubation, mean ± standard error. As to the method: (§1) Three human cancer cell lines, PC-3 (human prostate adenocarcinoma, metastatic), […], were used to test the anti-proliferative activity of β-enaminonitrile (4a–p) using the MTT colorimetric assay at concentrations ranging from 0–100 μM. The representative active cytotoxic substances 4a, 4c, 4d, 4e, 4g, 4i, 4k and 4o were also tested against two normal cell lines, human fetal lung (HFL-1) and human diploid fibroblasts (WI-38), as well as Adriamycin (ADR)-resistant human breast cancer cells (MCF-7/ADR). The reference cytotoxic agents, Vinblastine and Doxorubicin, were used in the tests.
(§2) The tumor cell lines MCF-7, HepG-2, PC-3 MCF-7/ADR, HFL-1 and (WI-38) were obtained from the American Type Culture Collection (ATCC, Rockville, MD, USA). The cells were grown on RPMI-1640 medium supplemented with 10% inactivated fetal calf serum and 50 µg/mL gentamycin. The cells were maintained at 37 ^οC in a humidified atmosphere with 5% CO2 and were subcultured two to three times a week.
(§3) The cytotoxic activity was appraised using the 3-(4,5-dimethylthiazol-2-yl)-2,5-diphenyltetrazolium bromide (MTT) colorimetric assay for the antitumor cell lines, as reported previously, and the ELISA assay for MCF-7/ADR [69].

The subject of series [2] is HeLa (cervical cancer cell line). As to the kind of experiment: MTT colorimetric cytotoxicity assay, HeLa. Format: cell-based, human. The conditions noted are these: 24 h incubation, mean ± standard error. As to the method: as §1, §3
(In general: Formazan colour is commonly taken as a measure of viable cells.)

Series [3] deals with SKOV-3 (ovarian cancer cell line). As to the kind of experiment: MTT colorimetric cytotoxicity assay, SKOV-3. In kind it is cell-based, human. The following applies: Homo sapiens, SK-OV-3, 24 h, 24 h incubation, mean ± standard error. As to the method:
as §1, §3

For the next series, the system named is P-glycoprotein (P-gp). The series can be described thus: P-gp content in MCF-7/ADR cell lysate (human P-gp ELISA kit). In kind it is cell-based. The conditions noted are these: human, MCF-7/ADR cells (cell lysate); MCF-7/ADR cell lysate, 48 h, ELISA. As to the method: P-glycoprotein (P-gp)-mediated multidrug resistance (MDR) is a phenomenon in which cells become resistant to structurally and mechanistically unrelated drugs, resulting in low intracellular drug concentrations. It is one of the noteworthy problems in malignant tumor clinical therapeutics.
The content of P-gp in the MCF-7/ADR cell lysates after incubation with varying conc. (12.5–100 µM) of tested compounds 4a, 4c, 4d, 4e, 4g and 4i following exposure for 48 hr was determined using a commercial human P-gp (Permeability Glycoprotein) ELISA Kit (MBS2506188, MyBioSource Inc., San Diego, CA, USA). Absorption was recorded at 450 nm with a Spectramax Gemini fluorescence microplate reader (Molecular Devices, Sunnyvale, CA, USA).
(ELISA stands for enzyme-linked immunosorbent assay.)

The subject of series [4] is Adriamycin (ADR)-resistant human breast cancer cells (MCF-7/ADR). As to the kind of experiment: Cytotoxicity against MCF-7/ADR cells. Format: cell-based. The following applies: 24 h exposure, mean ± standard error. As to the method: as §1, §2, §3
The test system of a further series is MCF-7/ADR cells. The series can be described thus: Annexin V/PI double staining flow cytometric apoptosis test. The conditions noted are these: IC50 value, 24 h. Format: cell-based, human. The text has this:
One of the optional mechanisms regarding the lethal action of chemotherapeutic medicines is blocking cell cycle progression, triggering apoptosis with otherwise mutual effect. […] The pivotal relation of the newly synthesized MCF-7/ADR “anticancer drugs” was further evaluated using the Annexin V/PI double staining flow cytometric test. […] In comparison to Doxorubicin’s 30% total apoptosis rate, which was nearly identical to 4a, 4c and 4g, compounds 4d, 4e and 4i were leading with percentages of 41%, 31% and 38%, respectively. Only compounds 4a (8.5%) and 4g (11%) had greater effects on necrosis compared to doxorubicin (5%). Other examined substances caused both early and late apoptosis in all treated cells (Figure 7b). Therefore, MCF-7/ADR cytotoxicity is induced by apoptotic processes, apparently without negative effects on P-gp.
(a) The dot plot of the Annexin V/PI-stained cells, treated with the indicated drugs. […] The data are expressed as the mean ± SD of three independent experiments in triplicate. Significances are shown in comparison to control cells (* p < 0.001). TEXT PRINTED IN THE PICTURE: (a) DOX.: 3.33%; 18.41%; 7.85% | (a) 4a: 8.66%; 18.17%; 4.24% | (a) 4c: 2.74%; 12.73%; 9.11% | (a) 4d: 4.85%; 27.44%; 8.73% | (a) 4e: 5.77%; 9.92%; 15.92% | (a) 4g: 11.04%; 3.94%; 7.38% | (a) 4i: 5.54%; 12.87%; 19.61% DOUBTS OF THE COPYIST ABOUT THIS PICTURE: The quadrant percentages in panel (a) are printed very small and blurred, so 3, 5, 6, 8 and 9 cannot be told apart with certainty. […] They are told apart only by their quadrant in the PI / Annexin V-FITC plot, and are listed upper left, upper right, lower right. / The sample line in each plot reads MCF7/ADR. In the 4g plot it is cut off as 'MCF7/AI'. / The panel 'Cont.' (untreated control: 1.56%, 0.15%, 0.48%) is left out because it is not a substance.
For orientation: In flow cytometry, cells or beads pass a laser one at a time.

The subject of series [5] is human diploid fibroblasts (WI-38). The series can be described thus: Cytotoxicity against normal cell line WI-38. Format: cell-based. The following applies: Homo sapiens, WI-38, 24 h, 24 h incubation, mean ± standard error. As to the method: as §1, §2, §3
A further series deals with human fetal lung (HFL-1). As to the kind of experiment: Cytotoxicity against normal cell line HFL-1. The following applies: Homo sapiens, HFL1, 24 h, 24 h incubation, mean ± standard error. In kind it is cell-based. As to the method:
as §1, §2, §3

[6] abbreviates: Homo sapiens, NCI/ADR-RES, 24 h.

Take `N#CC1=C(N)Oc2ccc3ccc(O)cc3c2C1c1c(F)cccc1Cl` (stereo not shown) [4h, 3-Amino-1-(2-Chloro-6-Flourophenyl)-9-Hydroxy-1H-Benzo[f]chromene-2-Carbonitrile]: the melting point lay in the range of 298 to 299 °C. In series [1], this molecule registered an IC50 of 11.6 ± 0.8 µM. The molecule further had an IC50 in series [2] (Homo sapiens, HeLa, 24 h) of 4.7 ± 0.5 µM. The molecule also displayed an IC50 in series [3] of 3.1 ± 0.2 µM.
Consider `COc1cccc(C2C(C#N)=C(N)Oc3ccc4ccc(O)cc4c32)c1O` (stereo not shown) [4j, 3-Amino-1-(2-Hydroxy-3-Methoxyphenyl)-9-Hydroxy-1H-Benzo[f]chromene-2-Carbonitrile], for which the melting point was in the range of 269 to 270 °C. In series [1], this molecule gave an IC50 of 33.5 ± 3.5 µM. In [2] (Homo sapiens, HeLa, 24 h), this molecule registered an IC50 of 50.4 ± 1.3 µM. This molecule had an IC50 in series [3] of 97.4 ± 0.8 µM.
For `N#CC1=C(N)Oc2ccc3ccc(O)cc3c2C1c1c(Cl)cccc1Cl` (stereo not shown) [4f, 3-Amino-1-(2,6-Dichlorophenyl)-9-Hydroxy-1H-Benzo[f]chromene-2-Carbonitrile] the same measures were 196 to 197 °C, 26.6 ± 3.1 µM, 4.1 ± 0.3 µM and 7 ± 0.4 µM.
For `N#CC1=C(N)Oc2ccc3ccc(O)cc3c2C1c1c(F)cccc1F` (stereo not shown) [4b, 3-Amino-1-(2,6-Difluorophenyl)-9-Hydroxy-1H-Benzo[f]chromene-2-Carbonitrile] the same measures were 193 to 194 °C, 9.4 ± 0.5 µM, 6.7 ± 0.2 µM and 2 ± 0.2 µM.
In the case of `CC[C@]1(O)C[C@@H]2CN(CCc3c([nH]c4ccccc34)[C@@](C(=O)OC)(c3cc4c(cc3OC)N(C)[C@H]3[C@@](O)(C(=O)OC)[C@H](OC(C)=O)[C@]5(CC)C=CCN6CC[C@]43[C@@H]65)C2)C1` [Vinblastine, reference compound], the IC50 in [1] came out at 7.5 ± 1.3 µM; in series [2] (Homo sapiens, HeLa, 24 h), 5.7 ± 1.1 µM; in series [3], 3.2 ± 1.2 µM.
`N#CC1=C(N)Oc2ccc3ccc(O)cc3c2C1c1c(F)c(F)c(F)c(F)c1F` (stereo not shown) [4p, 3-Amino-9-Hydroxy-1-(Perfluorophenyl)-1H-Benzo[f]chromene-2-Carbonitrile]: the melting point is 299 to 300 °C. In [1], this molecule registered an IC50 of 4.5 ± 1.2 µM. In series [2] (Homo sapiens, HeLa, 24 h), this molecule registered an IC50 of 3.9 ± 0.4 µM. The molecule further gave a half-inhibitory concentration (IC50) in series [3] of 4.2 ± 0.3 µM.
As for `COc1cccc2c1C(=O)c1c(O)c3c(c(O)c1C2=O)C[C@@](O)(C(=O)CO)C[C@@H]3O[C@H]1C[C@H](N)[C@H](O)[C@H](C)O1` [Doxorubicin, reference compound], in the series with P-glycoprotein (P-gp), it took 50.9 µM to reach half-maximal inhibition (IC50 at 48 h). In addition, the IC50 in [1] came out at 1.3 ± 0.3 µM; in series [2] (Homo sapiens, HeLa, 24 h), 1.5 ± 0.3 µM; in [4] (setting [6]) it was 18.6 ± 0.2 µM; in series [3], 1.1 ± 0.2 µM. The same molecule displayed a necrosis in the series on MCF-7/ADR cells of 5%.
`COc1ccc(C2C(C#N)=C(N)Oc3ccc4ccc(O)cc4c32)c(OC)c1OC` (stereo not shown) [4m, 3-Amino-1-(2,3,4-Trimethoxyphenyl)-9-Hydroxy-1H-Benzo[f]chromene-2-Carbonitrile]: the melting point lay within 265 to 266 °C. For the same molecule, 6.5 ± 1.3 µM corresponded to half-maximal inhibition in series [1] (IC50). Also, in [2] (Homo sapiens, HeLa, 24 h), the 50% inhibitory concentration (IC50) amounted to 8.8 ± 0.5 µM. Also, the IC50 in series [3] came to 3.4 ± 0.5 µM.
In the same order, the values of `COc1ccc(C2C(C#N)=C(N)Oc3ccc4ccc(O)cc4c32)cc1OC` (stereo not shown) [4l, 3-Amino-1-(3,4-Dimethoxyphenyl)-9-Hydroxy-1H-Benzo[f]chromene-2-Carbonitrile] are 268 to 269 °C, 4.1 ± 0.9 µM, 5.3 ± 0.2 µM and 4 ± 1.3 µM.
For the molecule `COc1ccc(C2C(C#N)=C(N)Oc3ccc4ccc(O)cc4c32)c(OC)c1` (stereo not shown) [4k, 3-Amino-1-(2,4-Dimethoxyphenyl)-9-Hydroxy-1H-Benzo[f]chromene-2-Carbonitrile], the melting point lay within 242 to 243 °C. The IC50 in series [5] was determined as 25.3 ± 1.3 µM. Moreover, in [1], the IC50 amounted to 3.7 ± 0.3 µM. Also, the IC50 in the series on human fetal lung (HFL-1) worked out at 24.2 ± 0.1 µM. In series [2], the IC50 is 6.7 ± 0.1 µM. In [4] (setting [6]), this molecule registered an IC50 of 36.8 ± 0.2 µM. The molecule also registered an IC50 in series [3] of 1.7 ± 0.3 µM.
In the case of `COc1cc(C2C(C#N)=C(N)Oc3ccc4ccc(O)cc4c32)cc(OC)c1OC` (stereo not shown) [4o, 3-Amino-1-(3,4,5-Trimethoxyphenyl)-9-Hydroxy-1H-Benzo[f]chromene-2-Carbonitrile], the melting point lay within 252 to 253 °C. In series [5], this molecule showed a half-maximal inhibitory concentration (IC50) of 20.4 ± 0.3 µM. In series [1], this molecule displayed an IC50 of 2.1 ± 0.8 µM. The molecule also gave an IC50 in the series on human fetal lung (HFL-1) of 22.2 ± 0.4 µM. For the same molecule, in [2] (Homo sapiens, HeLa, 24 h), 5.7 ± 1.8 µM corresponded to half-maximal inhibition (IC50). Also, half-maximal inhibition in series [4] (IC50) was put at 23.7 ± 0.4 µM. The molecule further gave an IC50 in series [3] of 3.1 ± 0.1 µM.
The molecule `COc1cc(OC)c(C2C(C#N)=C(N)Oc3ccc4ccc(O)cc4c32)cc1OC` (stereo not shown) [4n, 3-Amino-1-(2,4,5-Trimethoxyphenyl)-9-Hydroxy-1H-Benzo[f]chromene-2-Carbonitrile] displayed a melting point of 235 to 236 °C. In [1], this molecule yielded an IC50 of 7.6 ± 1.2 µM. In series [2] (Homo sapiens, HeLa, 24 h), this molecule showed an IC50 of 4.9 ± 0.5 µM. In series [3], the midpoint of inhibition, the IC50, lay at 2.4 ± 0.4 µM.

Usually IC50 stands for the midpoint of a concentration-inhibition curve. A lower IC50 goes with greater potency. For orientation: melting point means the temperature, or range, at which the solid turns liquid.
